Laboratory results as given in patent publication US20090093423A2, “NOVEL 2-SUBSTITUTED METHYL PENAM DERIVATIVES” (Orchid Chemicals and Pharmaceuticals Limited, priority 2006, published 2009).

Key:
[1] = test system: E. coli MRO 10006; assay: In vivo efficacy, infected mice; conditions: Swiss albino mice infected with E. coli MRO 10006; Piperacillin:inhibitor 4:1; 7-day survival
Description: (§1) The efficacy studies were performed as described earlier (Kuck et al, 1989, Antimicrob. Agents. Chemother. 33(11): 1964-1969). Briefly, Swiss albino mice, 20+2 g, from in-house breeding facility were challenged by the intraperitoneal injection of bacterial suspensions in 0.5 mL of hog gastric mucin (10 to 100 50% lethal doses). […] All the untreated control animals died within 48 h of infection. In each experiment, in-house Tazo was used as an inhibitor control in four doses. Median (50%) effective dose (ED50) were determined by applying the Reed and Muench's method of the 7-day survival ratios.

[2] = test system: E. coli MRO 10007; assay: In vivo efficacy, infected mice; conditions: Swiss albino mice infected with E. coli MRO 10007; Piperacillin:inhibitor 4:1; 7-day survival
Description: as §1

[3] = test system: K. pneumoniae MRO 11008; assay: In vivo efficacy, infected mice; conditions: Swiss albino mice infected with K. pneumoniae MRO 11008; Piperacillin:inhibitor 4:1; 7-day survival
Description: as §1

[4] = Minimum bactericidal studies, broth macrodilution; type: cell-based
Description: Minimum bactericidal studies were performed by broth macrodilution technique as described by NCCLS.

[5] = test system: E. coli BAA-196 (TEM-10); assay: MIC, Agar Dilution Method, ESBL producing ATCC isolate; type: cell-based
Description: (§2) The novel compounds were tested for the in vitro antibacterial activities by the Agar Dilution Method as specified in documents published by NCCLS, now CLSI, USA. (National Committee for Clinical Laboratory Standards (NCCLS). 2003. Approved standard M7-A6. NCCLS, Villanova, Pa.).
(§3) Tazo was also dissolved in same buffer to get a solution of, e.g., 1 mg/mL. Novel penam derivatives described herein were dissolved in water to get a solution of, e.g., 1 mg/mL.
(§4) The novel compounds and Tazo were also tested individually. The bacterial inoculum was prepared by picking 3 to 5 well-isolated bacterial colonies with the same morphological appearance from an 18-24 h old culture and adjusting the turbidity of the saline suspension to 0.5 McFarland Turbidity Standard equivalent to a bacterial population of 1.5×10^8 colony forming units (CFU) per mL of suspension. The suspension was diluted 1:10 in saline (i.e. 0.5 mL suspension+4.5 mL saline) to get a bacterial population of 1.5×10^7 CFU/mL as inoculum. […] The inoculated petridishes were incubated at 35° C. in an ambient atmosphere for 16-20 h.

[6] = test system: P. mirabilis BAA-663 (TEM-89); assay: as above; type: cell-based
Description: as §2, §3, §4

[7] = test system: E. coli BAA-202 (SHV-1); assay: as above; type: cell-based
Description: as §2, §3, §4

[8] = test system: E. coli BAA-198 (TEM-26); assay: as above; type: cell-based
Description: as §2, §3, §4

[9] = test system: E. coli BAA-199 (SHV-3); assay: as above; type: cell-based; conditions: E. coli BAA-199, SHV-3
Description: as §2, §3, §4

[10] = test system: E. coli BAA-200 (SHV-4); assay: as above; type: cell-based; conditions: E. coli BAA-200, SHV-4
Description: as §2, §3, §4

[11] = test system: K. pneumoniae 51503 (TEM-10 & -12); assay: as above; type: cell-based
Description: as §2, §3, §4

[12] = test system: E. coli BAA-201 (TEM-3); assay: as above; type: cell-based
Description: as §2, §3, §4

[13] = test system: E. coli BAA-197 (TEM-12); assay: as above; type: cell-based
Description: as §2, §3, §4

[14] = test system: A. baumanii 14501; assay: MIC, Agar Dilution Method; type: cell-based; conditions: inhibitor 1 μg/mL
Description: as §2, §3, §4

[15] = test system: M. catarrhalis ATCC 43627; assay: MIC, Agar Dilution Method; type: cell-based; conditions: inhibitor 1 μg/mL
Description: as §2, §3, §4

[16] = test system: K. pneumoniae 11010; assay: MIC, Agar Dilution Method; type: cell-based; conditions: inhibitor 1 μg/mL
Description: as §2, §3, §4

[17] = test system: E. cloacae 11802; assay: MIC, Agar Dilution Method; type: cell-based; conditions: inhibitor 1 μg/mL
Description: as §2, §3, §4

[18] = test system: M. morganii 13701; assay: MIC, Agar Dilution Method; type: cell-based; conditions: inhibitor 1 μg/mL
Description: as §2, §3, §4

[19] = test system: E. cloacae 11801; assay: MIC, Agar Dilution Method; type: cell-based; conditions: inhibitor 1 μg/mL
Description: as §2, §3, §4

[20] = test system: K. pneumoniae ATCC 700603; assay: MIC, Agar Dilution Method; type: cell-based; conditions: for MIC of Piperacillin with different concentrations of Tazo or compound of Example 1: K. pneumoniae 700603, SHV-18
Description: as §2, §3, §4

[21] = test system: E. coli MRO 10006; assay: MIC, Agar Dilution Method; type: cell-based; conditions: strain 10006 (uncharacterized-ESBL clinical strain); inhibitor 1 μg/mL
Description: as §2, §3, §4

[22] = test system: E. coli 10001; assay: MIC, Agar Dilution Method; type: cell-based; conditions: strain 10001 (uncharacterized-ESBL clinical strain); inhibitor 1 μg/mL
Description: as §2, §3, §4

[23] = test system: E. coli MRO 10007; assay: MIC, Agar Dilution Method; type: cell-based; conditions: strain 10007 (uncharacterized-ESBL clinical strain); inhibitor 1 μg/mL
Description: as §2, §3, §4

[24] = test system: E. coli 10003; assay: MIC, Agar Dilution Method; type: cell-based; conditions: inhibitor 1 μg/mL
Description: as §2, §3, §4

[25] = test system: M. morganii 13702; assay: MIC, Agar Dilution Method; type: cell-based; conditions: inhibitor 1 μg/mL
Description: as §2, §3, §4

[26] = test system: P. aeruginosa ATCC 27853; assay: MIC, Agar Dilution Method; type: cell-based; conditions: inhibitor 1 μg/mL
Description: as §2, §3, §4

C[C@]1(Cn2ccnn2)[C@H](C(=O)O)N2C(=O)C[C@H]2S1(=O)=O [Tazo]
2 µg/mL: MIC of Piperacillin with different concentrations of Tazo or compound of Example 1 ([12]; inhibitor 4 μg/mL) | MIC of Piperacillin with Tazo or compounds described herein at 1 μg/mL [16] | MIC of Piperacillin with Tazo or compounds described herein at 1 μg/mL [19] | MIC of Piperacillin with Tazo or compounds described herein at 1 μg/mL [21]
64 µg/mL: MIC of Piperacillin with different concentrations of Tazo or compound of Example 1 ([5]; inhibitor 1 μg/mL) | MIC of Piperacillin with different concentrations of Tazo or compound of Example 1 ([13]; inhibitor 1 μg/mL) | MIC of Piperacillin with Tazo or compounds described herein at 1 μg/mL [17]
8 µg/mL: MIC of Piperacillin with different concentrations of Tazo or compound of Example 1 ([6]; inhibitor 1 μg/mL) | MIC of Piperacillin with different concentrations of Tazo or compound of Example 1 ([6]; inhibitor 2 μg/mL) | MIC of Piperacillin with different concentrations of Tazo or compound of Example 1 ([13]; inhibitor 2 μg/mL) | MIC of Piperacillin with Tazo or compounds described herein at 1 μg/mL [14]
4 µg/mL: MIC of Piperacillin with different concentrations of Tazo or compound of Example 1 ([5]; inhibitor 4 μg/mL) | MIC of Piperacillin with different concentrations of Tazo or compound of Example 1 ([6]; inhibitor 4 μg/mL) | MIC of Piperacillin with different concentrations of Tazo or compound of Example 1 ([8]; inhibitor 1 μg/mL) | MIC of Piperacillin with different concentrations of Tazo or compound of Example 1 ([8]; inhibitor 2 μg/mL) | MIC of Piperacillin with different concentrations of Tazo or compound of Example 1 ([8]; inhibitor 4 μg/mL) | MIC of Piperacillin with different concentrations of Tazo or compound of Example 1 ([10]; inhibitor 4 μg/mL) | MIC of Piperacillin with different concentrations of Tazo or compound of Example 1 ([12]; inhibitor 1 μg/mL) | MIC of Piperacillin with different concentrations of Tazo or compound of Example 1 ([12]; inhibitor 2 μg/mL) | MIC of Piperacillin with different concentrations of Tazo or compound of Example 1 ([13]; inhibitor 4 μg/mL) | MIC of Piperacillin with Tazo or compounds described herein at 1 μg/mL [26]
<0.25 µg/mL: MIC of Piperacillin with Tazo or compounds described herein at 1 μg/mL [15] | MIC of Piperacillin with Tazo or compounds described herein at 1 μg/mL [25]
99.48 mg/kg b.w.: ED50 of Piperacillin in combination with inhibitor [3]
16 µg/mL: MIC of Piperacillin with different concentrations of Tazo or compound of Example 1 ([5]; inhibitor 2 μg/mL) | MIC of Piperacillin with different concentrations of Tazo or compound of Example 1 ([11]; inhibitor 4 μg/mL) | MIC of Piperacillin with Tazo or compounds described herein at 1 μg/mL [18] | MIC of Piperacillin with different concentrations of Tazo or compound of Example 1 ([20]; inhibitor 1 μg/mL) | MIC of Piperacillin with different concentrations of Tazo or compound of Example 1 ([20]; inhibitor 2 μg/mL) | MIC of Piperacillin with different concentrations of Tazo or compound of Example 1 ([20]; inhibitor 4 μg/mL) | MIC of Piperacillin with Tazo or compounds described herein at 1 μg/mL ([20]; K. pneumoniae ATCC 700603, inhibitor 1 μg/mL) | MIC of Piperacillin with Tazo or compounds described herein at 1 μg/mL [22]
37.22 mg/kg b.w.: ED50 of Piperacillin in combination with inhibitor [1]
32 µg/mL: MIC of Piperacillin with Tazo or compounds described herein at 1 μg/mL [24]
>128 µg/mL: MIC of Piperacillin with different concentrations of Tazo or compound of Example 1 ([7]; inhibitor 1 μg/mL) | MIC of Piperacillin with different concentrations of Tazo or compound of Example 1 ([7]; inhibitor 2 μg/mL) | MIC of Piperacillin with different concentrations of Tazo or compound of Example 1 ([7]; inhibitor 4 μg/mL) | MIC of Piperacillin with different concentrations of Tazo or compound of Example 1 ([9]; inhibitor 1 μg/mL) | MIC of Piperacillin with different concentrations of Tazo or compound of Example 1 ([9]; inhibitor 2 μg/mL) | MIC of Piperacillin with different concentrations of Tazo or compound of Example 1 ([9]; inhibitor 4 μg/mL) | MIC of Piperacillin with different concentrations of Tazo or compound of Example 1 ([10]; inhibitor 1 μg/mL) | MIC of Piperacillin with different concentrations of Tazo or compound of Example 1 ([10]; inhibitor 2 μg/mL) | MIC of Piperacillin with different concentrations of Tazo or compound of Example 1 ([11]; inhibitor 1 μg/mL) | MIC of Piperacillin with different concentrations of Tazo or compound of Example 1 ([11]; inhibitor 2 μg/mL)
58.81 mg/kg b.w.: ED50 of Piperacillin in combination with inhibitor [2]
bacteriostatic: Minimum bactericidal concentration study, Piperacillin in combination with inhibitor [4]
1 µg/mL: MIC of Piperacillin with Tazo or compounds described herein at 1 μg/mL [23]
